Measurements from publication PMC3172300, “Modulation of Catalytic Activity in Multi-Domain Protein Tyrosine Phosphatases” (PLoS ONE, 2011).
Square brackets hold non-standard residues; d marks the D form. Peptide text beside a SMILES is read from it. pY = N[C@@H](Cc1ccc(OP(=O)(O)O)cc1)C(=O)O

Columns and labels:
DLAR D1 = target: T1, DLAR D1 (Drosophila melanogaster, UniProt P16621); assay: Surface Plasmon Resonance peptide binding, DLAR D1; conditions: column first binding site, single-site model
T1 construct: DLAR 1448-1746; His tag (pET-15b or pET-22b); made in house; host or cells: E. coli BL21(DE3)
T1 sequence (P16621 1448-1746): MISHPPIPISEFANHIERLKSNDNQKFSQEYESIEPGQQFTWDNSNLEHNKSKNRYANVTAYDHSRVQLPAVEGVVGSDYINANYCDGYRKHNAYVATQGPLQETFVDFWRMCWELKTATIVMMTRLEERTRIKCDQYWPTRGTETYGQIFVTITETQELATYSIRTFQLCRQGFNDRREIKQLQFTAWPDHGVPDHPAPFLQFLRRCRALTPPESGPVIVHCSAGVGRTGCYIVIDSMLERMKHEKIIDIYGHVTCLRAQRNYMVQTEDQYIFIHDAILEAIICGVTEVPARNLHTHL
Description: The binding of phosphotyrosine peptides to the PTP domains was studied by Surface Plasmon Resonance on a Biacore-2000 instrument (BIAcore, AB). All experiments were conducted at 25°C. DLAR PTP domains were immobilized onto carboxylated dextran CM5 chips (BIAcore AB) using the standard amine coupling procedure as recommended by the manufacturer. Binding and kinetic assays were performed in 10 mM HEPES, pH 8.0, 150 mM NaCl, 10 mM DTT and 3 mM EDTA at a flow rate of 5 µL/min. The peptides were used at concentrations ranging from 50–700 µM. Dissociation was initiated by replacing the analyte with buffer. The association and dissociation curves were monitored for 600 sec. Sensograms were analyzed with BIA-evaluation software version 2 (BIAcore AB). Sensograms for DLAR D1D2, DLAR D1HSSD2 and DLAR D1D2HSS were fitted to two-site binding equations. DLAR D1 and DLAR D2 sensograms were fitted using a single-site binding model.

[1] = tested on: PTP99A D1 active site cysteine to serine mutant; assay: Phosphatase assay using pNPP, PTP99A D1 active site Cys to Ser mutant; type: biochemical, Drosophila melanogaster; conditions: active site cysteine to serine in D1
Excerpt: (§1) Cosmids containing the genes encoding RPTPs DLAR and PTP99A were a kind gift from Prof. Kai Zinn (Caltech). The PTP domains of PTP99A and DLAR were PCR amplified and ligated between the NheI and XhoI restriction sites of the bacterial expression vectors pET-15b and pET-22b. The active site mutants (with the nucleophilic cysteines in the PTP domains of DLAR and PTP99A mutated to serines) were obtained by using a single primer approach. An XbaI site was incorporated in the primers to aid screening of mutants. All clones were confirmed by sequencing (Macrogen Inc.). The details of the expression constructs are compiled in Table S1 and Figure 1a.
(§2) Phosphatase activity of the recombinant PTP domains was determined by using para-Nitrophenylphosphate (pNPP), a small molecule generic substrate, as well as phosphotyrosine containing peptides. The pNPP assay was performed as reported previously, with a modification in the buffer composition (25 mM Citrate, Glycine and HEPES (CGH), pH 6.5, 100 mM NaCl and 2 mM DTT). Phosphatase activity with the phosphotyrosine peptides was ascertained by the malachite green reaction as described for PTPs previously. […] The reaction was stopped by the addition of the Biomol Green reagent (Enzo Life Sciences) and the colour developed after 20 min was quantified at 650 nm. […]

[2] = tested on: D958C mutant of the D2 domain of PTP99A; assay: Phosphatase assay using pNPP, PTP99A D2 D958C mutant; type: biochemical, Drosophila melanogaster; conditions: D958C point mutant
Description: (§3) Phosphatase activity of the recombinant PTP domains was determined by using para-Nitrophenylphosphate (pNPP), a small molecule generic substrate, as well as phosphotyrosine containing peptides. The pNPP assay was performed as reported previously, with a modification in the buffer composition (25 mM Citrate, Glycine and HEPES (CGH), pH 6.5, 100 mM NaCl and 2 mM DTT). Phosphatase activity with the phosphotyrosine peptides was ascertained by the malachite green reaction as described for PTPs previously. Briefly, the reaction mixture comprised of 0.01 µM protein incubated with increasing concentrations of different peptides in 25 mM citrate buffer pH 6.0, 100 mM NaCl and 2 mM DTT for 15 min at 25°C. The reaction was stopped by the addition of the Biomol Green reagent (Enzo Life Sciences) and the colour developed after 20 min was quantified at 650 nm. For all the assays, kinetic constants for the steady state catalysis were obtained by fitting the reaction curves to the Michaelis-Menten equation using the nonlinear regression module of Sigma plot software (Systat Software, Inc.).
Supplementary file pone.0024766.s005.tif: Figure S5 Characterization of the D958C mutant of the D2 domain of PTP99A. A: Size exclusion profile of wild-type and D958C mutant of the D2 domain of PTP99A. B: Circular Dichroism (CD) spectra of the wild type and D958C mutant. […]

[3] = tested on: DLAR D1 active site cysteine to serine mutant; assay: Phosphatase assay using pNPP, DLAR D1 active site Cys to Ser mutant; type: biochemical, Drosophila melanogaster; conditions: active site cysteine to serine in D1
Excerpt: as §1, §2

DLAR D2 = target: T2, DLAR D2 (Drosophila melanogaster, UniProt P16621); assay: Phosphatase assay using pNPP, DLAR D2; type: biochemical; conditions: CGH buffer pH 6.5
T2 construct: DLAR 1728-2029; His tag (pET-15b or pET-22b); made in house; host or cells: E. coli BL21(DE3)
T2 sequence (P16621 1728-2029): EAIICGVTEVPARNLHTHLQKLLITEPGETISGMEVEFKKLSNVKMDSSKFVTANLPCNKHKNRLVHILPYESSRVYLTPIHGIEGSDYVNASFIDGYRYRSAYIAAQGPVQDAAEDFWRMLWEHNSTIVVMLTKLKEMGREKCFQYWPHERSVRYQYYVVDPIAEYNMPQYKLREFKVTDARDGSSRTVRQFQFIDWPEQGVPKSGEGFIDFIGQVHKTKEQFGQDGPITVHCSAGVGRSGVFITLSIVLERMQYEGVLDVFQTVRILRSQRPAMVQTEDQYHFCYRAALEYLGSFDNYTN
Description: as §3

| Compound | kon (DLAR D1; SPR Biacore-2000, 25°C, 10 mM HEPES pH 8.0, 150 mM NaCl, 10 mM DTT, 3 mM EDTA, peptides 50–700 µM, read-out: ka) | Kd (DLAR D1; SPR, 25°C, pH 8.0) | PTPase activity [1] | phosphatase activity [2] | PTPase activity [3] | PTPase activity (DLAR D2) |
| --- | --- | --- | --- | --- | --- | --- |
| CC(C)C[C@H](NC(=O)[C@H](C)NC(=O)CNC(=O)[C@H](Cc1ccc(OP(=O)(O)O)cc1)NC(=O)[C@H](CC(=O)O)NC(=O)[C@@H]1CCCN1C(=O)[C@H](CCC(=O)O)NC(=O)[C@H](C)NC(=O)[C@@H](N)[C@@H](C)O)C(=O)N[C@@H](Cc1ccc(O)cc1)C(=O)N[C@@H](CCC(=O)O)C(=O)O [Cuticle peptide] (H-TAEPD[pY]GALYE-OH) | 18.6 ± 1.46 M⁻¹ s⁻¹ | 94.6 ± 0.33 µM |  |  |  |  |
| O=[N+]([O-])c1ccc(OP(=O)(O)O)cc1 [pNPP, para-Nitrophenylphosphate] |  |  | inactive enzyme | catalytically inactive | inactive enzyme | no detectable activity |
